What was measured:
[1] = In vitro dissolution, USP apparatus 2 (paddle); format: physicochemical; settings: at first 30 minutes; FIGS. 4-6
Protocol: In the dissolution testing guideline for immediate release profiles, material dissolves over a period of time, and its dissolution is measured at given intervals during this period. A minimum of three time points is recommended and generally cover early, middle and late stages of the dissolution profile. […] In presence of minor changes to the drug dosage forms, a single point dissolution test may be adequate to ensure product dosing compliance. For major changes, a dissolution profile comparison performed under identical conditions for the product before and after the changes(s) is recommended. […] The term “similarity factor” or F2 factor as used herein refers to one way of comparing dissolution profiles of two different products. (Multisource Pharmaceutical Products: Guidelines on Registration Requirements to establish Interchangeability, Quality Assurance and Safety: Medicines, Essential Drugs and Medicines Policy, World Health Organization, 1211 Geneva 27, Switzerland). This model independent mathematical approach compares the dissolution profile of the two products: test and reference (or two strengths, or pre- and post-approved products from the same manufacturer) and calculates percent (%) difference between two curves at each time point and measures the relative error between two curves. Tests are recommended to be performed under the same test conditions. […]

[2] = clinical; parameters: species or system human; settings: both sexes, human, in vivo, Mean trough plasma concentration
Protocol: An open-label, multiple-dose, single-sequence study to evaluate the effect of steady-state carbamazepine XR, 400 mg once daily, a CYP3A4 substrate and inducer, on the pharmacokinetics of steady-state vilazodone 40 mg tablets once daily, with hardness of more than 10 kp and less than 14 kp, preferably about 12 kp as shown in Table 3 (No Tablet Breakage). Vilazodone was co-administered with carbamazepine XR (extended release formulation). Carbamazepine is an antiepileptic drug approved for the treatment of psychomotor and grand mal seizures is metabolized by CYP3A4, and is a CYP3A4 inducer.
All subjects were healthy, nonsmoking male or female volunteers who were 18-45 (Study 2) years of age. Inclusion and exclusion criteria were typical of the criteria used in pharmacokinetic studies in healthy volunteers as known in the art. Inclusion criteria used included agreement to use an effective measure of contraception, body mass index (BMI)>18 and ≦30 kg/m^2 (BMI=18 allowed), normal or clinically non-significant results on physical examination, medical history, serum chemistry, hematology, and urinalysis; negative hepatitis B antigen and C antibody tests, and negative HIV test at screening. Exclusion criteria included clinically significant electrocardiogram results or QT prolongation, clinically significant disease state, history of alcohol abuse, ingestion of food, drink, or drug that may interfere with CYP enzyme activity (e.g., cruciferous vegetables, caffeine, alcohol), known sensitivity to study drug or other drugs from the same class, and use of prohibited concomitant prescription or over-the counter medications.
All volunteers received 4 treatments (A, B, C, and D) in the same, fixed sequence: Treatment A consisted of vilazodone alone on Days 1-9 and was followed by a 14-day washout, Treatment B was carbamazepine XR alone for 19 days (Days 24-42), Treatment C was vilazodone plus carbamazepine XR for 9 days (Days 43-51), and Treatment D was carbamazepine alone for 3 days (Days 52-54). Once-daily doses of study drug were administered in the morning after breakfast; twice-daily doses were administered in the morning after breakfast and 12 hours later in the evening after dinner Study drug was administered within 30 minutes after the end of the corresponding meal.
Blood samples to determine plasma concentrations of vilazodone, M17 (the metabolite of vilazodone), carbamazepine, and carbamazepine-10,11-epoxide (one of the pharmacologically active metabolites of carbamazepine) were collected into tubes pretreated with K2EDTA. For vilazodone and M17 analyses, blood samples (approximately 6 mL) were collected at pre-dose on Days 1, 7, 8, 49, and 50. […] For the analyses of carbamazepine and carbamazepine-10,11-epoxide, blood samples were collected at pre-dose on Days 24, 40, 41, 49 and 50.
Blood samples were centrifuged at no less than 2500 g for 10 minutes at 4° C. within 30 minutes of the sample draw. Plasma was harvested and transferred to polypropylene tubes and flash frozen in a dry ice bath with isopropyl alcohol or methanol. Samples for vilazodone analyses were stored at approximately −70° C. and analyzed. Samples for carbamazepine analyses were stored at −20° C. and analyzed.
Plasma samples were analyzed for vilazodone, M17, carbamazepine and/or carbamazepine-10,11-epoxide concentrations using liquid chromatography coupled with tandem mass spectrometry (LC/MS/MS). For vilazodone and M17, analytes of interest were detected by electrospray ionization mass spectrometry in the negative ion multiple reaction monitoring mode. The assay was linear in the concentration range of 0.5 to 250 ng/mL for vilazodone and 0.25 to 125 ng/mL for M17.
Based on 50 ìL of human plasma with K2EDTA as the anticoagulant, the lower limit of quantification (LLOQ) was 0.5 ng/mL for vilazodone and 0.25 ng/mL for M17. […]

[3] = target: CYP3A4 (Homo sapiens, UniProt P08684); settings: in vitro studies; cited from earlier work
[4] = target: dopamine reuptake site (Homo sapiens, UniProt Q01959); settings: cited from earlier work
dopamine reuptake site, sequence (Q01959 whole entry): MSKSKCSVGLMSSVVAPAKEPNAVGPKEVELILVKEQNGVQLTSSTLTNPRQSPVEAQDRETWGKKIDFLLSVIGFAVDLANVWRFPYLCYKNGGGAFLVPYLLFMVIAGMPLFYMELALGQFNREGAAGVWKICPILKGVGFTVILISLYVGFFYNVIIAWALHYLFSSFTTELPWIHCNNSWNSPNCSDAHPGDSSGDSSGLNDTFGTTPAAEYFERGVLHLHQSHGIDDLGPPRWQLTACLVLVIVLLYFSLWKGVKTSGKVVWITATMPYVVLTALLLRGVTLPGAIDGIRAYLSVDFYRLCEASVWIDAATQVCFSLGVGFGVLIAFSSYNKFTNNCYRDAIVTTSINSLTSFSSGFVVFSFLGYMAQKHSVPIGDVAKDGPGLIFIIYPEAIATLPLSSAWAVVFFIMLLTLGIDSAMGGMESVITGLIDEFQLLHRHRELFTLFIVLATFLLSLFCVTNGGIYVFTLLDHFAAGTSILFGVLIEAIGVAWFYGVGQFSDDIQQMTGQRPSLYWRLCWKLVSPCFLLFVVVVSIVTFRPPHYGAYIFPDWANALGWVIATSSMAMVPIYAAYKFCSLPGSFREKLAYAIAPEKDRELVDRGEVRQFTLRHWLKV

CYP3A4, sequence (P08684 whole entry): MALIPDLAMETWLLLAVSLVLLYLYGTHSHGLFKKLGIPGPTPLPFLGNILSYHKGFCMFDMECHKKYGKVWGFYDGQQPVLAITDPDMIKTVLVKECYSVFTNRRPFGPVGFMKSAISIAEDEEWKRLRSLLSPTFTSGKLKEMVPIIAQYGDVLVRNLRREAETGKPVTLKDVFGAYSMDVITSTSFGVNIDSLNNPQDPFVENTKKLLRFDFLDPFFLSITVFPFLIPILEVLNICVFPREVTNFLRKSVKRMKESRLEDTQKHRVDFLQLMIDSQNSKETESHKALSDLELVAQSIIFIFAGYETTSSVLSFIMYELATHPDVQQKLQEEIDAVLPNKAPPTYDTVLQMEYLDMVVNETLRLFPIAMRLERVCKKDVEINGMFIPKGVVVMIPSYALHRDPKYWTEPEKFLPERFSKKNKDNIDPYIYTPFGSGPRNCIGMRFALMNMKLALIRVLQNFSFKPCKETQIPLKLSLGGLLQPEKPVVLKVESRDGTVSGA

Cl.N#Cc1ccc2[nH]cc(CCCCN3CCN(c4ccc5oc(C(N)=O)cc5c4)CC3)c2c1 [Vilazodone, 1-[4-(5-cyanoindol-3-yl)butyl]-4-(2-carbamoyl-benzofuran-5-yl)-piperazine hydrochloride]
vilazodone HCl released [1]: 80% | concentration at 7 day [2]: 36 ng/mL | concentration at 8 day [2]: 45.1 ng/mL | concentration at 9 day [2]: 45.3 ng/mL | inhibitor or inducer of CYP3A4 [3]: not an inhibitor or inducer | binding to dopamine reuptake site [4]: not
